Values joined by “and” are separate entries in the source; they are usually repeats but may differ in a detail not shown here. Equal entries are not always repeated. Where two headings read alike, the source gives them in different places.
Legend:
[1] = humans; cited from earlier work
[2] = parameters: method as in PMID 33201517, PMID 18353799; conditions: laboratory rodents; cited from earlier work
[3] = tested on: NTCP; parameters: method as in PMID 26001962; conditions: perfluoroalkyl sulfonates, previously obtained; cited from earlier work
[4] = biological target: T1, human Na+/taurocholate cotransporting polypeptide (NTCP) (Homo sapiens, UniProt Q14973); experiment: Inhibition of NTCP-mediated [3H]-taurocholate uptake in NTCP-expressing HEK293 cells; format: cell-based; conditions: for IC50 / inhibition of NTCP-mediated taurocholate uptake: 1 μM [3H]-taurocholate, 1 min, 37 °C; for IC50: sodium-containing buffer, 3 independent experiments; for inhibition of NTCP-mediated taurocholate uptake / statistically significant inhibition of taurocholate uptake: 10 μM PFCA; for inhibition of NTCP-mediated taurocholate uptake: NTCP-HEK293; for statistically significant inhibition of taurocholate uptake: 1 μM taurocholate, p < 0.05 vs control
T1 construct: containing the human NTCP open reading frame with a C-terminal 6-His tag; expressed in transfected cells
T1 sequence (Q14973 1-349): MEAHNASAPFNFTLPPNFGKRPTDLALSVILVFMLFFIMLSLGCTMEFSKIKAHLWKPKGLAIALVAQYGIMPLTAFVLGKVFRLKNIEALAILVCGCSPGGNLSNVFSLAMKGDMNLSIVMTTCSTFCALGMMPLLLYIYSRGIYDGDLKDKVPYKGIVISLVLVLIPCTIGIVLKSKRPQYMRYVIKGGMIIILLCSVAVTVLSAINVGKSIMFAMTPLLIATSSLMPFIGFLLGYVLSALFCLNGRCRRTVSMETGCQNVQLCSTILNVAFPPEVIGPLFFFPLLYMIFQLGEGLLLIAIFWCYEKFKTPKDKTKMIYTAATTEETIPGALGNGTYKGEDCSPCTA
Experimental: (§1) Flp-In™-293 (HEK293) cells were purchased from Thermo Fisher Scientific (Waltham, MA, USA) and grown at 37 °C in a humidified 5% CO2 atmosphere in Dulbecco’s Modified Eagle’s Medium (DMEM) obtained from the American Type Culture Collection (ATCC, Manassas, VA, USA: 30-2002). The medium was supplemented with 10% fetal bovine serum (FBS) (Hyclone, Logan, UT, USA), and 100 U/mL penicillin, 100 μg/mL streptomycin (Thermo fisher Scientific). The pcDNA5/FRT plasmid containing the human NTCP open reading frame with a C-terminal 6-His tag was used to generate a stable NTCP-expressing cell line using hygromycin selection. A single clone was isolated using a cloning cylinder and cultivated in the above DMEM with the addition of 500 μg/mL hygromycin (Thermo Fisher Scientific). For transport experiments, cells were plated on poly-D-lysine-coated 24-well plates at 300,000 cells per well for uptake experiments after 48 h or at 200,000 cells per well for uptake experiments after 72 h. Uptake experiments and LC-MS/MS analysis were performed at the time points indicated in the figure legends as previously described.
To investigate whether PFCAs would interact with the human Na^+/taurocholate cotransporting polypeptide (NTCP), we determined to what extent perfluorinated carboxylic acids with chain lengths from 3 to 18 carbon atoms (C3 to C18) would inhibit NTCP-mediated taurocholate uptake. For these experiments, we measured the uptake of 1 μM taurocholate in the presence and absence of 10 or 100 μM of each of the PFCAs.
Figure 1. […] Uptake was measured in sodium-containing (NaCl) or sodium-free (ChCl) buffer for 1 min at 37 °C and corrected for protein. Uptake then was normalized to control (NaCl) and individual values of 1 or 2 experiments performed in triplicates are presented. Bars represent the mean ± SD, asterisks indicate significant differences to the control (NaCl) at p < 0.05.
For these experiments, NTCP-mediated uptake of 1 μM taurocholate was measured in the absence and presence of increasing concentrations of perfluorinated compounds. For PFOA and PFNA, the concentrations ranged from 0.1 to 1000 μM, while the concentrations for PFDA were between 0.1 and 100 μM, due to solubility limitations.
Figure 2. […] Uptake of 1 μM [^3H]-taurocholate was measured into NTCP-expressing HEK293 cells in the absence or presence of increasing concentrations of (A) perfluorooctanoic acid (PFOA), (B) perfluorononanoic acid (PFNA), or (C) perfluorodecanoic acid (PFDA). Uptake was measured for 1 min at 37 °C in a sodium-containing buffer and corrected for protein. After conversion of the data to percent of control, IC50 values were calculated using GraphPad Prism V9 using the “One site-Fit logIC50” equation from 3 independent experiments performed in triplicates. The 95% confidence intervals are given in parentheses.

[5] = biological target: T1, human Na+/taurocholate cotransporting polypeptide (NTCP); experiment: Inhibition kinetics of NTCP-mediated taurocholate transport in NTCP-expressing HEK293 cells; format: cell-based; conditions: for type of inhibition of NTCP-mediated taurocholate uptake: inhibition kinetics, best fit
Experimental: as §1
Figure 3. Kinetics of taurocholate uptake in the absence and presence of PFOA, PFNA, and PFDA. Uptake of increasing concentrations of [^3H]-taurocholate into NTCP-expressing HEK293 cells was measured for 15 s (within the initial linear rate) at 37 °C in a sodium-containing buffer in the absence or presence of 10 and 100 μM of (A) PFOA, (B) PFDA, or (C) PFNA. After correction for protein, the results were analyzed using GraphPad Prism V9 using the “Enzyme kinetics–Inhibition” equations. […] Mean ± SD values of two independent experiments performed in triplicate are shown.

[6] = biological target: T2, human NTCP (Homo sapiens, UniProt Q14973); experiment: Sodium-dependent NTCP-mediated uptake of PFCAs into NTCP-expressing HEK293 cells (LC-MS/MS); format: in vitro ADME; conditions: for transport by NTCP (substrate, words): sodium-dependent uptake in NTCP-HEK293
T2 construct: containing the human NTCP open reading frame with a C-terminal 6-His tag; expressed in transfected cells
T2 sequence (Q14973 1-349): T1 sequence (Q14973 1-349)
Experimental: as §1
To resolve whether PFOA, PFNA, and PFDA were substrates of NTCP, we measured the transport of these compounds. […] To better characterize this transport, we wanted to perform kinetics experiments and determine the Km and Vmax values for the three compounds. Therefore, in Figure 4, we determined the initial linear rate conditions in which to perform the kinetics experiments. We evaluated the time-dependent uptake of PFOA, PFNA, and PFDA at 10 and 300 μM in NTCP-expressing HEK293 cells in sodium-containing and sodium-free buffer. While there is a time-dependent uptake of all three PFCAs, most likely due to organic anion transporters expressed in HEK293 cells, NTCP only transports its substrates in the presence of sodium. Therefore, we calculated the net sodium-dependent uptake. Based on the time-dependent sodium-dependent uptake results shown in Figure 4, we used 20 s for PFOA (Figure 4A), 30 s for PFNA (Figure 4B), and 1 min for PFDA (Figure 4C) to perform the concentration-dependent uptake kinetics.
Figure 4. Time dependency of NTCP-mediated PFOA, PFNA, and PFDA uptake. Uptake of (A) perfluorooctanoic acid (PFOA), (B) perfluorononanoic acid (PFNA), or (C) perfluorodecanoic acid (PFDA) was measured in NTCP-expressing HEK293 cells in sodium-containing (NaCl; solid lines) or sodium-free (ChCl; dotted lines) buffer at the indicated times at 37 °C and corrected for protein. The net sodium-dependent uptake (net; dashed lines) is also shown. The results are presented as means ± SD of two combined independent experiments performed in triplicates.
For the concentration-dependent uptake of […], we were limited by solubility and could only determine uptake up to a concentration of 1 mM. […] Therefore, no kinetic constants could be calculated for PFDA.
Figure 5. Kinetics of NTCP-mediated PFOA and PFNA uptake. Uptake of increasing concentrations of (A) perfluorooctanoic acid (PFOA) or (B) perfluorononanoic acid (PFNA) was measured at 37 °C for 20 (PFOA) or 30 s (PFNA) in NTCP-expressing HEK293 cells in sodium-containing or sodium-free buffer and corrected for protein. Net uptake was calculated by subtracting uptake in the sodium-free medium from uptake in the sodium-containing medium. Values are mean ± SD of three independent experiments parformed in triplicates. Curves were fit using the Michaelis–Menten equation in GraphPad Prism V9.

[7] = parameters: method as in PMID 33201517; conditions: laboratory mice and non-human primates; cited from earlier work
[8] = competitive inhibition fit, taurocholate uptake 15 s, 37 °C, 0, 10 and 100 μM PFCA, table: 95% CI in parentheses, read-out: Ki
[9] = in presence of 10 μM PFCA, 95% CI in parentheses
[10] = in presence of 100 μM PFCA, 95% CI in parentheses

Compound | Km [3] [µM] | IC50 [4] [µM] | Vmax of taurocholate uptake [5, 9] | Vmax of taurocholate uptake [5, 10] | type of inhibition of NTCP-mediated taurocholate uptake [5] | transport by NTCP (substrate, words) [6] | further results
O=C(O)C(F)(F)C(F)(F)C(F)(F)F [PFBA, perfluorobutanoic acid] |  |  |  |  |  |  | serum elimination half-life [1]: a few days; serum elimination half-life [2]: a few hours
O=S(=O)(O)C(F)(F)C(F)(F)C(F)(F)C(F)(F)F [PFBS, perfluorobutane sulfonate] | 39.6 |  |  |  |  |  | 
O=C(O)C(F)(F)C(F)(F)C(F)(F)C(F)(F)C(F)(F)C(F)(F)C(F)(F)C(F)(F)C(F)(F)F [PFDA, Perfluorodecanoic acid] |  | 9.5 | 3.2 (3.0–3.4) nmol/mg·min | 2.5 (2.2–3.0) nmol/mg·min | competitive inhibitors | can transport | inhibition of NTCP-mediated taurocholate uptake [4]: 60–70%; Ki [5, 8]: 8.3 µM; saturation of sodium-dependent uptake ([6]; concentration range tested up to 300 mM (so in the source), 1 min): did not reach saturation
O=S(=O)(O)C(F)(F)C(F)(F)C(F)(F)C(F)(F)C(F)(F)C(F)(F)F [PFHxS, perfluorohexane sulfonate] | 112 |  |  |  |  |  | 
O=C(O)C(F)(F)C(F)(F)C(F)(F)C(F)(F)C(F)(F)C(F)(F)C(F)(F)C(F)(F)F [PFNA, perfluorononanoic acid] |  | 7.5 | 3.5 (3.2–3.7) nmol/mg·min | 3.1 (2.5–4.1) nmol/mg·min | competitive inhibitors | can transport | inhibition of NTCP-mediated taurocholate uptake [4]: 60–70%; Ki [5, 8]: 12.3 µM and 12 µM; Vmax of sodium-dependent NTCP-mediated PFCA uptake ([6]; net sodium-dependent uptake, 37 °C, 20 s (PFOA) or 30 s (PFNA)): 670 ± 391 nmol/mg/min; Km ([6]; net sodium-dependent uptake, 37 °C, 20 s (PFOA) or 30 s (PFNA), PFNA value a rough estimate, saturation not reached, read-out: Km of sodium-dependent NTCP-mediated PFCA uptake): 5300 ± 3500 µM
O=C(O)C(F)(F)C(F)(F)C(F)(F)C(F)(F)C(F)(F)C(F)(F)C(F)(F)F [PFOA, perfluorooctanoic acid] |  | 28 | 3.0 (2.8–3.2) nmol/mg·min | 2.8 (2.6–3.1) nmol/mg·min | competitive inhibitors | can transport | statistically significant inhibition of taurocholate uptake [4]: statistically significant inhibitors at 10 μM, but to a lesser extent; Ki [5]: 17 µM; Ki value lower than Km value ([6]; Ki (taurocholate uptake inhibition) versus Km (own transport)): about 100 fold; serum elimination half-life [1]: several years; serum elimination half-life [7]: days to weeks
O=S(=O)(O)C(F)(F)C(F)(F)C(F)(F)C(F)(F)C(F)(F)C(F)(F)C(F)(F)C(F)(F)F [PFOS, perfluorooctane sulfonate] | 130 |  |  |  |  |  | 
O=C(O)C(F)(F)C(F)(F)C(F)(F)C(F)(F)C(F)(F)C(F)(F)C(F)(F)C(F)(F)C(F)(F)C(F)(F)F [perfluoroundecanoic acid] |  |  |  |  |  |  | statistically significant inhibition of taurocholate uptake [4]: statistically significant inhibitors at 10 μM, but to a lesser extent
C[C@H](CCC(=O)NCCS(=O)(=O)O)[C@H]1CC[C@H]2[C@@H]3[C@H](O)C[C@@H]4C[C@H](O)CC[C@]4(C)[C@H]3C[C@H](O)[C@]12C [taurocholate, reference compound] |  |  |  |  |  |  | Vmax of taurocholate uptake ([5]; concentration of PFCA 0 (control of each PFCA series), 95% CI in parentheses): 2.9 (2.7–3.2) nmol/mg·min and 3.2 (2.9–3.4) nmol/mg·min and 3.5 (3.2–3.8) nmol/mg·min; Km ([5]; concentration of PFCA 0 (control of each PFCA series), 95% CI in parentheses, read-out: Km of taurocholate uptake): 12 µM and 16 µM
